Source: PubChem BioAssay (NCI)
“And” between values parts separate entries of the source, which are not always exact repeats. Equal values may be shown once.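 Where inhibition never reached the appropriate level, the endpoint shown equals the highest concentration tested. Otherwise, values were interpolated linearly from a five-concentration, 48-hour dose response in 96-well plates. GI50 marks 50% less growth. TGI denotes the concentration required for complete inhibition of growth.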

Key:
Test in all cases: inhibition of tumour cell growth, NCI panel, 48 h
UACC-62 melanoma = system: UACC-62 melanoma
MOLT-4 leukemia = system: MOLT-4 leukemia
SK-OV-3 ovarian = system: SK-OV-3 ovarian
HCT-15 colon = system: HCT-15 colon
MALME-3M melanoma = system: MALME-3M melanoma
HL-60(TB) leukemia = system: HL-60(TB) leukemia
TK-10 renal = system: TK-10 renal
EKVX NSCLC = system: EKVX NSCLC
LOX IMVI melanoma = system: LOX IMVI melanoma
RXF 393 renal = system: RXF 393 renal

Compound	GI50 (UACC-62 melanoma) [µM]	TGI (UACC-62 melanoma) [µM]	GI50 (MOLT-4 leukemia) [µM]	TGI (MOLT-4 leukemia)	GI50 (SK-OV-3 ovarian) [µM]	TGI (SK-OV-3 ovarian) [µM]	GI50 (HCT-15 colon) [µM]	TGI (HCT-15 colon)	GI50 (MALME-3M melanoma) [µM]	TGI (MALME-3M melanoma) [µM]	GI50 (HL-60(TB) leukemia) [µM]	TGI (HL-60(TB) leukemia)	GI50 (TK-10 renal) [µM]	TGI (TK-10 renal) [µM]	GI50 (EKVX NSCLC) [µM]	TGI (EKVX NSCLC)	GI50 (LOX IMVI melanoma) [µM]	TGI (LOX IMVI melanoma) [µM]	GI50 (RXF 393 renal) [µM]	TGI (RXF 393 renal) [µM]
CC1(C)C(=O)/C(=C\c2ccco2)C[C@]2(C)[C@H]3CC=C4[C@@H]5C[C@](C)(C(=O)O)CC[C@]5(C)CC[C@@]4(C)[C@]3(C)CC[C@@H]12	6.49	20.3	4.37	26.7 µM	14.4	29.3	5.26	18.8 µM	12.7	29.3	6.78	27.2 µM	13.1	36.7	4.63	17.3 µM	9.56	22.2	10.7	22.7
C=CCN(N=O)C(=O)N(CCC)CCCC(NC(C)=O)C(=O)NCc1ccccc1 (centres undefined)		> 100		> 100 µM		> 100		> 100 µM		> 100		> 100 µM		> 100		> 100 µM		> 100		> 100
CCOC(=O)/C(C1=CC(=O)C(=O)c2ccccc21)=C(/C)NCc1ccccc1	2.02	3.91	0.182	0.434 µM	2.17	4.88	1.75	3.6 µM	1.66	3.57	0.453	2.25 µM	1.72	3.51	2.33	5.06 µM	1.15	2.36	0.186	1.73
O=S(=O)(O)c1ccc2cc(N=Nc3cc(S(=O)(=O)O)c4cccnc4c3O)ccc2c1		> 100		> 100 µM		> 100		> 100 µM		> 100		4.97 µM		> 100		> 100 µM		> 100		> 100
COc1ccc(N=Cc2ccc(N(CCC#N)CCC#N)cc2)cc1		> 100		> 100 µM		> 100		> 100 µM		> 100		> 100 µM		> 89		> 100 µM		> 100		> 100
O=C(/C=C/c1ccc([N+](=O)[O-])o1)NNC(=O)c1cc2ccccc2cc1O	0.694	2.26	0.97	> 100 µM	4.23	> 100	0.714	2.91 µM	1.34	4.91	0.962	> 100 µM	2.9	> 100	7.2	> 100 µM	0.395	1.98	0.236	0.94
[Cl][Sn]([c]1ccccc1)[c]1ccccc1	3.22	9.57	2.91	28.9 µM	18.4	32.7	4.48	18 µM	2.19	4.66	2.29	6.46 µM	3.17	8.57	6.57	15.5 µM	3.81	13.5	1.55	3.24
CCCCS(=N)(=O)CC[C@H](N)C(=O)O (some centres undefined)	> 8090	> 10000	1540	3810 µM and > 10000 µM	> 10000	> 10000	> 6960	4940 µM and > 10000 µM	> 8490	> 10000	32.9	1270 µM and 224 µM	> 10000	> 10000	615	1720 µM and 3890 µM	2.12		> 10000	> 10000
Cc1c(C(=O)CC(=O)C(=O)NC2C3CC4CC(C3)CC2C4)[n+](=O)c2ccccc2n1[O-] (centres undefined)		> 100		> 100 µM		> 100		> 100 µM		> 100		> 100 µM		> 100		> 100 µM		> 100		> 100
Cc1ccc(-n2c(C)nc3c2C(=O)c2ccccc2C3=O)cc1		56.6		> 100 µM		> 100		> 100 µM		51.5		> 100 µM		> 100		> 100 µM		97.2		> 100
Cc1ccc2c(c1)sc(-c1ccc(N(C)C)cc1)[n+]2C	2.07	15.5	1.93	> 48.7 µM	2.04	7.91	18.8	> 100 µM	1.38	15.4	0.273	10.5 µM	1.99	11.2	0.379	> 100 µM	1.28	21.8	9.16	> 47.4
OCCCNCc1ccccn1		> 100		> 100 µM		> 100		> 100 µM		> 100		> 100 µM		> 100		> 100 µM		> 100		> 100
CCOC(=O)/C=C/c1ccc(C(=O)OCC)[nH]1	5.23	> 100	4.42	> 100 µM	27.8	> 100	3.11	> 100 µM	2.89	> 100	1.62	9.89 µM	6.05	> 100	9.89	> 100 µM	5.29	> 100	9.59	46.9
C=C(CNCCO)[C@@H]1CC[C@]2(CO)CC[C@]3(C)[C@H](CC[C@@H]4[C@@]5(C)CCC(NCCc6ccc(O)cc6)C(C)(C)[C@@H]5CC[C@]43C)[C@@H]12 (some centres undefined)	1.75	3.24	0.339	1.36 µM	1.7	3.23	1.36	2.82 µM	1.59	3.13	2	4.08 µM	1.66	3.1	1.46	3.11 µM	1.18	2.63	1.08	2.39
CCc1cccc(C)c1NC(=O)CC1Sc2ccccc2NC1=O (centres undefined)		> 100		> 100 µM		> 100		> 100 µM		> 100		47.3 µM		> 100		> 100 µM		> 100		73.7
CCN(CC)C(=S)SSC1CCCCC1	18	42.8	11.4	43.5 µM	31.2	75	19.7	46.4 µM	20.8	46.3	13.6	47.2 µM	18	34.6	30.5	91.2 µM	8.6	24.3	16.4	31.2
